Literature values as cited in patent US20200016150A1, “TREATMENT OF THE PRURITIC SYMPTOMS OF LIVER DISEASE” (TREVI THERAPEUTICS, INC., priority 2018, published 2020).

Conditions: injectable formulations (i.e., IV or IM or SC)

Question: With `Cl.Oc1ccc2c3c1OC1[C@@H](O)CC[C@@]4(O)[C@@H](C2)N(CC2CCC2)CC[C@]314` (stereo partly drawn) [nalbuphine, 17-(cyclobutylmethyl)-4,5α-epoxymorphinan-3, 6α, 14-triol, hydrochloride] as the compound, how does the half-life read?
Answer: 2 to 3 h
